Test results: US9926281B2 (priority 2014, dated 2018)
Read-outs that look alike come from different tables or passages of the source.

Experiments:
[1] = target: T1, human MMP13 (Homo sapiens (Human), UniProt P45452); test: biochemical
Experimental: Human MMP13 is preactivated by incubated the enzyme in the same buffer complemented with 1 mM freshly prepared p-Aminophenylmercuric acetate (AMPA) for 1 hour at 37° C.

[2] = target: T2, human TACE (Homo sapiens (Human), UniProt P78536); test: biochemical
[3] = target: T3, human ADAMTS-5 (Homo sapiens (Human), UniProt Q9UNA0); test: biochemical
Experimental: Finally, the fluorescence is read on the Envision (Perkin Elmer) after an incubation of 90 min at 37° C.

[4] = target: T2, human TACE; conditions: read-out: TACE potency IC50
[5] = target: T3, human ADAMTS-5; conditions: read-out: hADAMTS-5 potency IC50
[6] = target: T1, human MMP13; conditions: read-out: hMMP-13 potency IC50
Experimental: The reaction is initiated by adding to the assay plate 520 MMP-fret substrate XV (10 μL, 4 μM) in the same buffer.

[7] = target: rnADAMTS-5 (1-564-6H) (Rattus norvegicus, UniProt Q6TY19); conditions: read-out: Rat ADAMTS-5 potency IC50

T2 sequence (P78536 whole entry, looked up, change not shown): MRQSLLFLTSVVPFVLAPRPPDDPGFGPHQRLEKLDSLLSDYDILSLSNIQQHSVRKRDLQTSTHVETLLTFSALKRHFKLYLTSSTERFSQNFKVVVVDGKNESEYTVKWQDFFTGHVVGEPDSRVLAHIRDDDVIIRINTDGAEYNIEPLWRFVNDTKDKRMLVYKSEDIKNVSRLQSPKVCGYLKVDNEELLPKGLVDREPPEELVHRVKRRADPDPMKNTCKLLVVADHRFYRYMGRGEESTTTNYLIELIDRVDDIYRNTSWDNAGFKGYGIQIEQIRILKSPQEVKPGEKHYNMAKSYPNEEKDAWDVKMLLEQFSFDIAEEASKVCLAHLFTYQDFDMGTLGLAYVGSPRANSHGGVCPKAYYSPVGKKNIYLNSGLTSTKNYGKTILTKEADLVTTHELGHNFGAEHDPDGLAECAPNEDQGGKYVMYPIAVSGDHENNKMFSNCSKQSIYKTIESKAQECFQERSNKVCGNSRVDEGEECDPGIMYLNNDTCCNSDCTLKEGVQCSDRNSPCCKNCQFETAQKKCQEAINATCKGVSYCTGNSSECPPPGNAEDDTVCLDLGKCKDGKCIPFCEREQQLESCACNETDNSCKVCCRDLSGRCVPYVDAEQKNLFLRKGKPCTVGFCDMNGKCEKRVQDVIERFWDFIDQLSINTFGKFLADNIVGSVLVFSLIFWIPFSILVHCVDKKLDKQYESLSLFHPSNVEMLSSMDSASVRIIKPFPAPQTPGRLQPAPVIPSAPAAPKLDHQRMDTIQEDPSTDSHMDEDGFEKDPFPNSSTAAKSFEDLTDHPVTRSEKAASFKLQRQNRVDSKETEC
T3 sequence (Q9UNA0 262-930): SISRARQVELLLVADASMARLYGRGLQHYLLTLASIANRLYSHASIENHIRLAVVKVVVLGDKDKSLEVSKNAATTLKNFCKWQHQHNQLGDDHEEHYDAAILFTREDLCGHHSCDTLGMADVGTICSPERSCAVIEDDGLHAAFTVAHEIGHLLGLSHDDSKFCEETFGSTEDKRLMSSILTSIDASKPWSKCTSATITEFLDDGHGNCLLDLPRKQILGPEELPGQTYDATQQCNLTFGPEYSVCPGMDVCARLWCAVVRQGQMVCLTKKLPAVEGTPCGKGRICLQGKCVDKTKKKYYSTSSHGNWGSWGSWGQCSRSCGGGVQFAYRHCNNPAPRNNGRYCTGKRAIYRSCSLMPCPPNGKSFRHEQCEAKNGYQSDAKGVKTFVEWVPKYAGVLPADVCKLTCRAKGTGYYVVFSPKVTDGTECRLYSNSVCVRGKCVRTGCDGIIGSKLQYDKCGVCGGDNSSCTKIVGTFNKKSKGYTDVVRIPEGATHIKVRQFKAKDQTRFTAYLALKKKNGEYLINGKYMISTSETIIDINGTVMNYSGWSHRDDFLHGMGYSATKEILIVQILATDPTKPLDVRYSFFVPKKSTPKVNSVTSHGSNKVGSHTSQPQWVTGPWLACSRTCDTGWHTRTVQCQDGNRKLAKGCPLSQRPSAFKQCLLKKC

SMILES	IC50 [1]	IC50 [2]	IC50 [3]	IC50 [4]	IC50 [5]	IC50 [6]	IC50 [7]
C[C@H]1CN(C(=O)CCC2(C)NC(=O)NC2=O)CCN1c1ccc(Cl)c(F)c1 (stereo partly drawn) [compound 164, 5-[3-[(3S)-4-(4-chloro-3-fluoro-phenyl)-3-methyl-piperazin-1-yl]-3-oxo-propyl]-5-methyl-imidazolidine-2,4-dione]	> 20000 nM	> 20000 nM	236 nM	–	–	–	–
Cc1cccc(N2CCN(C(=O)CCC3(c4ccccc4)NC(=O)NC3=O)CC2)c1C (stereo not shown) [compound 8, 5-[3-[4-(2,3-dimethylphenyl)piperazin-1-yl]-3-oxo-propyl]-5-phenyl-imidazolidine-2,4-dione]	–	–	–	> 3220 nM	142 nM	> 20000 nM	157 nM
Cc1ccccc1N1CCN(C(=O)CCC2(c3ccccc3)NC(=O)NC2=O)CC1 (stereo not shown) [compound 7, 5-[3-[4-(o-tolyl)piperazin-1-yl]-3-oxo-propyl]-5-phenyl-imidazolidine-2,4-dione]	–	–	–	> 2930 nM	272 nM	> 20000 nM	272 nM
O=C1NC(=O)C(CCC(=O)N2CCN(c3ccc(Cl)c(F)c3)CC2)(c2ccccc2)N1 (stereo not shown) [compound 10, 5-[3-[4-(4-chloro-3-fluoro-phenyl)piperazin-1-yl]-3-oxo-propyl]-5-phenyl-imidazolidine-2,4-dione]	–	–	–	> 2790 nM	56 nM	285 nM	41 nM
O=C1NC(=O)C(CCC(=O)N2CCN(c3ccccc3)CC2)(c2ccccc2)N1 (stereo not shown) [compound 4, 5-[3-oxo-3-(4-phenylpiperazin-1-yl)propyl]-5-phenyl-imidazolidine-2,4-dione]	–	–	–	> 5500 nM	114 nM	2520 nM	66 nM
C[C@H]1CN(C(=O)CCC2(C3CC3)NC(=O)NC2=O)CCN1c1cccc2c1cnn2C (stereo partly drawn) [compound 333, 5-cyclopropyl-5-[3-[(3S)-3-methyl-4-(1-methylindazol-4-yl)piperazin-1-yl]-3-oxo-propyl]imidazolidine-2,4-dione]	–	> 20000 nM	3120 nM	–	–	–	–
Cc1cccc(N2CCN(C(=O)CCC3(C)NC(=O)NC3=O)CC2)c1C (stereo not shown) [compound 11, 5-[3-[4-(2,3-dimethylphenyl)piperazin-1-yl]-3-oxo-propyl]-5-methyl-imidazolidine-2,4-dione]	–	–	–	> 20000 nM	988 nM	> 20000 nM	1170 nM
CC1(CCC(=O)N2CCN(c3ccc(Cl)cc3)CC2)NC(=O)NC1=O (stereo not shown) [compound 2, 5-[3-[4-(4-chlorophenyl)piperazin-1-yl]-3-oxo-propyl]-5-methyl-imidazolidine-2,4-dione]	–	–	–	> 17500 nM	274 nM	2370 nM	361 nM
Cc1ccc(Cl)cc1N1CCN(C(=O)CCC2(C)NC(=O)NC2=O)CC1 (stereo not shown) [compound 16, 5-[3-[4-(5-chloro-2-methyl-phenyl)piperazin-1-yl]-3-oxo-propyl]-5-methyl-imidazolidine-2,4-dione]	–	–	–	457 nM	301 nM	> 20000 nM	329 nM
C[C@H]1CN(C(=O)CCC2(c3ccc(C(F)(F)F)nc3)NC(=O)NC2=O)CCN1c1cc(F)cc(F)c1 (stereo partly drawn) [compound 335, 5-[3-[(3S)-4-(3,5-difluorophenyl)-3-methyl-piperazin-1-yl]-3-oxo-propyl]-5-[6-(trifluoromethyl)-3-pyridyl]imidazolidine-2,4-dione]	–	> 4000 nM	78 nM	–	–	–	–
Cc1c(Cl)cccc1N1CCN(C(=O)CCC2(c3ccccc3)NC(=O)NC2=O)CC1 (stereo not shown) [compound 21, 5-[3-[4-(3-chloro-2-methyl-phenyl)piperazin-1-yl]-3-oxo-propyl]-5-phenyl-imidazolidine-2,4-dione]	–	–	–	2060 nM	166 nM	> 20000 nM	162 nM
O=C1NC(=O)C(CCC(=O)N2CCN(c3cccc(Cl)c3)CC2)(c2ccccc2)N1 (stereo not shown) [compound 6, 5-[3-[4-(3-chlorophenyl)piperazin-1-yl]-3-oxo-propyl]-5-phenyl-imidazolidine-2,4-dione]	–	–	–	2360 nM	–	2150 nM	107 nM
O=C1NC(=O)C(CCC(=O)N2CCN(c3ccc4cnccc4c3)CC2)(c2ccccc2)N1 (stereo not shown) [compound 14, 5-[3-[4-(6-isoquinolyl)piperazin-1-yl]-3-oxo-propyl]-5-phenyl-imidazolidine-2,4-dione]	–	–	–	> 4000 nM	897 nM	366 nM	784 nM
COCC1(CC(C)C(=O)N2CCN(c3cncc(F)c3)[C@@H](C)C2)NC(=O)NC1=O (stereo partly drawn) [compound 364, 5-[3-[(3S)-4-(5-fluoro-3-pyridyl)-3-methyl-piperazin-1-yl]-2-methyl-3-oxo-propyl]-5-(methoxymethyl)imidazolidine-2,4-dione]	–	> 20000 nM	92 nM	–	–	–	–
O=C1NC(=O)C(CCC(=O)N2CCN(c3ccccc3Cl)CC2)(c2ccccc2)N1 (stereo not shown) [compound 20, 5-[3-[4-(2-chlorophenyl)piperazin-1-yl]-3-oxo-propyl]-5-phenyl-imidazolidine-2,4-dione]	–	–	–	> 4000 nM	1280 nM	> 20000 nM	1270 nM
Cc1c(Cl)cccc1N1CCN(C(=O)CCC2(C)NC(=O)NC2=O)CC1 (stereo not shown) [compound 18, 5-[3-[4-(3-chloro-2-methyl-phenyl)piperazin-1-yl]-3-oxo-propyl]-5-methyl-imidazolidine-2,4-dione]	–	–	–	> 4000 nM	675 nM	> 20000 nM	930 nM
Cc1cc(Cl)ccc1N1CCN(C(=O)CCC2(c3ccccc3)NC(=O)NC2=O)CC1 (stereo not shown) [compound 13, 5-[3-[4-(4-chloro-2-methyl-phenyl)piperazin-1-yl]-3-oxo-propyl]-5-phenyl-imidazolidine-2,4-dione]	–	–	–	1170 nM	836 nM	> 20000 nM	966 nM
O=C1NC(=O)C(CCC(=O)N2CCN(c3ccc4ccccc4c3)CC2)(c2ccccc2)N1 (stereo not shown) [compound 9, 5-[3-[4-(2-naphthyl)piperazin-1-yl]-3-oxo-propyl]-5-phenyl-imidazolidine-2,4-dione]	–	–	–	2500 nM	316 nM	1480 nM	331 nM
